What was measured:
[1] = molecular target: T1, Seed linoleate 13S-lipoxygenase-1 (Glycine max, UniProt P08170)
T1 sequence (P08170 whole entry): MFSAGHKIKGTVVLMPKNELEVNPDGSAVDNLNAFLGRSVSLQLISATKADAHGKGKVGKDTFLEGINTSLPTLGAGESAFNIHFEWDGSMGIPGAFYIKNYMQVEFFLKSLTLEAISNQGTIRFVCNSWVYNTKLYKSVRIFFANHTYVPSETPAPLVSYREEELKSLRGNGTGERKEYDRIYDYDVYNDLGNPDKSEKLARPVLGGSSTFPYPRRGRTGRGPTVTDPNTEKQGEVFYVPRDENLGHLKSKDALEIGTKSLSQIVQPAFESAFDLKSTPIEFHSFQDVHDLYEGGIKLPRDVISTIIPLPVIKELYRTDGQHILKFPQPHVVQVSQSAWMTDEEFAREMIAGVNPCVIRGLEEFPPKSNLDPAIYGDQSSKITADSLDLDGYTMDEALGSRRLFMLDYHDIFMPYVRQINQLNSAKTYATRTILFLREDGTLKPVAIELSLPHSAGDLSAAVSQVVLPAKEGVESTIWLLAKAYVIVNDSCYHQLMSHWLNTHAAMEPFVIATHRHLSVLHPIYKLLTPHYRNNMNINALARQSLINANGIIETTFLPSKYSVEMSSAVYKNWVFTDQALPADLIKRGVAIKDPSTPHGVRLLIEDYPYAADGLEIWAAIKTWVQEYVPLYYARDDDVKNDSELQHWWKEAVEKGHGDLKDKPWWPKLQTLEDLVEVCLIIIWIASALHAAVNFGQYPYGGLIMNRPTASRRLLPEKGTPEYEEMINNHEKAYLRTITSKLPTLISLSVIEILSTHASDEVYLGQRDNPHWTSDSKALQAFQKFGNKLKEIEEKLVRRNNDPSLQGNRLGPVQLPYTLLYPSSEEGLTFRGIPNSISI
Description: In vitro inhibitory activity against 15-lipoxygenase obtained from soybean

[2] = molecular target: T1, Seed linoleate 13S-lipoxygenase-1; remark: listed apart in the source
Description: In vitro inhibitory activity against 5-lipoxygenase obtained from potato

[3] = molecular target: T2, Prostaglandin G/H synthase 1 (Ovis aries, UniProt P05979); assay: In vitro inhibitory activity against ovine cyclooxygenase 1
T2 sequence (P05979 whole entry): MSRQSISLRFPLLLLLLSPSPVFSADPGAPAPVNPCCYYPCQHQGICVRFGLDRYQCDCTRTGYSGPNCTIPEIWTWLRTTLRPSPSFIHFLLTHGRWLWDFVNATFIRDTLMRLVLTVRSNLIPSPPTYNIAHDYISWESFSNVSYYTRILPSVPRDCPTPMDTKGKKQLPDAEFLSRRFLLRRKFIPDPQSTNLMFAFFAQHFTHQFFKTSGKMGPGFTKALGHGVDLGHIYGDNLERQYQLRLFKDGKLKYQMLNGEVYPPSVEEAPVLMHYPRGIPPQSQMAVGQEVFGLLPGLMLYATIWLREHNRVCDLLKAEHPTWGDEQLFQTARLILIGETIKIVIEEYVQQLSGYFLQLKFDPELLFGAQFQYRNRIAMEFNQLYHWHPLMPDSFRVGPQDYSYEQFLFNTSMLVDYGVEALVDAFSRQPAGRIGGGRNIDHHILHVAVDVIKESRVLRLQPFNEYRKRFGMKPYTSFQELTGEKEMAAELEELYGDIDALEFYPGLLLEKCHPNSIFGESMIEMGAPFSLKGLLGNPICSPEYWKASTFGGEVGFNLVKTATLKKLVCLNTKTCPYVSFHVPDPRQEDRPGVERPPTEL

Row | SMILES | IC50 [1] | IC50 [2] | IC50 [3]
1 | COc1cc(C(=O)C#Cc2ccc(S(C)(=O)=O)cc2)ccc1O | 0.1 µM | > 10 µM | 1.1 µM
2 | COc1ccc(C(=O)C#Cc2ccc(S(C)(=O)=O)cc2)cc1 | 3.5 µM | > 10 µM | –
3 | O=c1cc(-c2ccc(O)c(O)c2)oc2cc(O)cc(O)c12 [LUTEOLIN] | 3.2 µM | – | –
4 | CS(=O)(=O)c1ccc(C#CC(=O)c2ccc(O)cc2)cc1 | 0.32 µM | 0.3 µM | 3.5 µM
5 | CS(=O)(=O)c1ccc(C#CC(=O)c2ccc(F)cc2)cc1 | 1 µM | > 10 µM | 30 µM
6 | COc1cc(C(=O)C#Cc2ccc(S(C)(=O)=O)cc2)cc(OC)c1OC | > 10 µM | 7 µM | > 100 µM
7 | CS(=O)(=O)c1ccc(C#CC(=O)c2cccc(O)c2)cc1 | 0.5 µM | 0.3 µM | > 100 µM
8 | CS(=O)(=O)c1ccc(C#CC(=O)c2ccc(C#N)cc2)cc1 | – | – | 31.5 µM
9 | Cc1ccc(C(=O)C#Cc2ccc(S(C)(=O)=O)cc2)cc1 | > 10 µM | > 10 µM | > 100 µM
10 | CS(=O)(=O)c1ccc(C#CC(=O)c2ccccc2)cc1 | > 10 µM | – | 1 µM
11 | CS(=O)(=O)c1ccc(C#CC(=O)c2ccc(F)c(F)c2)cc1 | 3.2 µM | 0.4 µM | 3.1 µM
12 | COc1cccc(C(=O)C#Cc2ccc(S(C)(=O)=O)cc2)c1 | > 10 µM | 9 µM | > 100 µM
13 | COc1ccc(C(=O)C#Cc2ccc(S(C)(=O)=O)cc2)cc1O | 0.3 µM | > 10 µM | 1 µM
14 | CS(=O)(=O)c1ccc(C#CC(=O)c2ccc(C(F)(F)F)cc2)cc1 | > 10 µM | > 10 µM | 3.1 µM

From ChEMBL document CHEMBL1143476, “Synthesis and biological evaluation of 1,3-diphenylprop-2-yn-1-ones as dual inhibitors of cyclooxygenases and lipoxygenases” (Bioorg Med Chem Lett, 2005)
